Assay results as given in patent publication US8536354B2, “Steroidal ligands and their use in gene switch modulation” (Intrexon Corporation, priority 2008, dated 2013).
pEC50: −log10 of the molar value. Converted amounts (≈) assume the structure as drawn. “And” between values parts separate entries of the source, which are not always exact repeats. Equal values may be shown once. Read-outs that look alike come from different tables or passages of the source.

How the values were obtained:
[1] = Log D measurement (shake flask, pH 7.4 buffer / octanol); type: physicochemical; settings: octanol/pH 7.4 buffer (shake flask), pH 7.4 buffer / water-saturated octanol, read-out: Experimental logD
Method: (§1) Each shake flask was agitated for 60 minutes at room temperature, then allowed to stand for 1 hour at room temperature. […] Absorbance was compared to that of a reference standard at the same absorbance maximum for a 1-2% solution of the same steroid in CH3OH, allowing for up to 10 nM maxima shift due to solvent effect.

[2] = tested on: D. melanogaster BII cell line (expresses the ecdysteroid receptor complex EcR-USP); assay: Drosophila melanogaster BII cell line bioassay (turbidometric; agonist and antagonist versions); settings: Drosophila melanogaster, read-out: EC50 (M), BII bioassay results
[3] = in human; cited from earlier work
physchem = settings: 25 °C, water, thermodynamic from solid
Method: as §1

[4] = Caco II permeability assay; settings: human, Caco-2, pH 7.4
[5] = biological target: T1, wild-type Choristoneura fumiferana EcR (CfEcR-DEF) (Choristoneura fumiferana, UniProt O77255); assay: Two-hybrid gene switch assay, wild-type CfEcR-DEF (GAL4-EcR / VP16-RXR-USP chimera, luciferase) in NIH3T3 cells
T1 sequence (O77255 219-541): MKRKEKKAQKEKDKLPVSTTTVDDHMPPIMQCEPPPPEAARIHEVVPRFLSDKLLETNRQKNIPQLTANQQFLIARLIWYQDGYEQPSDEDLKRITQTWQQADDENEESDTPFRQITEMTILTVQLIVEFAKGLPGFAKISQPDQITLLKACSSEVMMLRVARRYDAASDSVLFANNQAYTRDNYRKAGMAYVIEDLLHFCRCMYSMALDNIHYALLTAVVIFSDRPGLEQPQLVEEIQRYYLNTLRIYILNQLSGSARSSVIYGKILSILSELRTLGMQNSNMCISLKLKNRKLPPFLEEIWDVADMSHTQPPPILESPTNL
T1 sequence (P28702 299-449 partner): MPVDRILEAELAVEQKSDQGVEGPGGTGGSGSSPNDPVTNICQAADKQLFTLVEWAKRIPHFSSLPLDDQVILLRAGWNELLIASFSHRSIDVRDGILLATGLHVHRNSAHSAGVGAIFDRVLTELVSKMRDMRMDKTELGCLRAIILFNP

[6] = Plasma protein binding assay (dialysis); type: in vitro ADME; settings: both sexes; human plasma vs PBS pH 7.4, ca. 24 hours at 37° C.
[7] = tested on: Nephotettix cincticeps EcR (NcEcR-DEF); assay: Two-hybrid gene switch assay, NcEcR-DEF in NIH3T3 cells; settings: Example Two
VgEcR/RXR = VgEcR/RXR (Drosophila melanogaster, UniProt P34021, E282G/G283S/G286V)
[8] = biological target: T2, wild-type Aedes aegypti EcR (AaEcR-DEF) (Aedes aegypti, UniProt P49880); assay: Two-hybrid gene switch assay, AaEcR-DEF in NIH3T3 cells
T2 sequence (P49880 405-776 limits assumed): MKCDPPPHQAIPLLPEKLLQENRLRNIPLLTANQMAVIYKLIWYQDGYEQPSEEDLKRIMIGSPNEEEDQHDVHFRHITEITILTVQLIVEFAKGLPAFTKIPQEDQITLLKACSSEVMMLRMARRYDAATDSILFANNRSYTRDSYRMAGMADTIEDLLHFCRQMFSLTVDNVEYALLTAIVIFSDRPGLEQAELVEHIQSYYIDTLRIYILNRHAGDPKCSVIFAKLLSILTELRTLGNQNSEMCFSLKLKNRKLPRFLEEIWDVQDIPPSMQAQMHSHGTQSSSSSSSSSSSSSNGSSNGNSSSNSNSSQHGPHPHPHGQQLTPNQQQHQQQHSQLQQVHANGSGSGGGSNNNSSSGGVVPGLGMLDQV

Bombyx mori EcR (BmEcR) = biological target: T3, Bombyx mori EcR (BmEcR) (Bombyx mori, UniProt P49881); assay: Two-hybrid gene switch assay, BmEcR in NIH3T3 cells
T3 sequence (P49881 352-589 limits assumed): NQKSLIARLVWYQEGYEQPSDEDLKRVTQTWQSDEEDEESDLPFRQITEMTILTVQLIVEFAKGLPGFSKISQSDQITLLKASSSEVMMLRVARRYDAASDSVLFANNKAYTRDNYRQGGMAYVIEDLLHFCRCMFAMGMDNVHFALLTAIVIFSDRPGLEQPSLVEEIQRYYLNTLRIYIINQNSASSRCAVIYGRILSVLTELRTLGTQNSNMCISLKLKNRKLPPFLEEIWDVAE

[9] = biological target: T4, wild-type Drosophila melanogaster EcR (DmEcR-DEF) (Drosophila melanogaster, UniProt P34021); assay: Two-hybrid gene switch assay, DmEcR-DEF in NIH3T3 cells; settings: EC50, DmEcR gene switch, NIH3T3, Example One
T4 sequence (P34021 342-878 limits assumed): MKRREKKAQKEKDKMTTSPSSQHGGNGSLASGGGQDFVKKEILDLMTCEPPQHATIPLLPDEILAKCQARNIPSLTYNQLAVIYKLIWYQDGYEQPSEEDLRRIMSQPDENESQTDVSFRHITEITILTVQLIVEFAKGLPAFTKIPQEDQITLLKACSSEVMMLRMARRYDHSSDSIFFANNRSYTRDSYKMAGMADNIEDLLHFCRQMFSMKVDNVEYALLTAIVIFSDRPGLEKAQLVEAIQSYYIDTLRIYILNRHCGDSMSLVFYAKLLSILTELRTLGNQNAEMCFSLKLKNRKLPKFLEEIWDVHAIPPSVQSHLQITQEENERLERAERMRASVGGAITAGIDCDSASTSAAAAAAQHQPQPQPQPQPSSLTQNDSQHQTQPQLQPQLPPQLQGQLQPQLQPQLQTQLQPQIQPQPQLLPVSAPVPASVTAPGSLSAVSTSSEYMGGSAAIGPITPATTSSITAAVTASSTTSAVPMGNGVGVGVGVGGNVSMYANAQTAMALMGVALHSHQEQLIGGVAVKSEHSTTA

[10] = tested on: EcRs (lepidopteran and non-lepidopteran); assay: Two-hybrid gene switch assays, statements across the set of ten EcRs in NIH3T3 cells
[11] = Water solubility measurement (saturated solutions, 25° C., UV absorbance); settings: 25 °C, thermodynamic from solid
Method: as §1

Chain of VgEcR/RXR (P34021 whole entry E282G/G283S/G286V): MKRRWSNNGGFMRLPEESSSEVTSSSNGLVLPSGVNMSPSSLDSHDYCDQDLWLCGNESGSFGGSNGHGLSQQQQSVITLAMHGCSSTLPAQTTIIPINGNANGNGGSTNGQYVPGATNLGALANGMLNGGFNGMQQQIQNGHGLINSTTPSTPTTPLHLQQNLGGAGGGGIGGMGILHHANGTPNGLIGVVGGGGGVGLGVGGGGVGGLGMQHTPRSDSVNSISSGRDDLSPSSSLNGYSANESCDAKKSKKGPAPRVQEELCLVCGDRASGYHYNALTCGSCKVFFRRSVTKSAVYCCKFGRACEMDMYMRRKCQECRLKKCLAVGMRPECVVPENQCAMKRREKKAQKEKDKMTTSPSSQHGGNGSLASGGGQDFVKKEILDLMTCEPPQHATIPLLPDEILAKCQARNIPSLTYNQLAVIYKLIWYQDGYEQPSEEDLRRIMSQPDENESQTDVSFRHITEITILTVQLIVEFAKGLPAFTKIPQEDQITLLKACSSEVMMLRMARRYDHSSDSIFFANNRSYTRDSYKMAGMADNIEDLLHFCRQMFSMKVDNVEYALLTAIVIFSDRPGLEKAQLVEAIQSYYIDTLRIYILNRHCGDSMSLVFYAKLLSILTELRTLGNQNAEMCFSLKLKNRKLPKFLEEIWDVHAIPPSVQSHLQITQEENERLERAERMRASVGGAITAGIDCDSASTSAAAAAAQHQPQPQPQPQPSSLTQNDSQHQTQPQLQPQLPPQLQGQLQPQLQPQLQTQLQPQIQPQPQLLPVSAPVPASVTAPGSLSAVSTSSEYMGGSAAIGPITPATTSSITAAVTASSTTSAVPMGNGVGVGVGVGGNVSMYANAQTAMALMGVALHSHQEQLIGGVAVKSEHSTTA
Chain of VgEcR/RXR (P19793 whole entry, further chain): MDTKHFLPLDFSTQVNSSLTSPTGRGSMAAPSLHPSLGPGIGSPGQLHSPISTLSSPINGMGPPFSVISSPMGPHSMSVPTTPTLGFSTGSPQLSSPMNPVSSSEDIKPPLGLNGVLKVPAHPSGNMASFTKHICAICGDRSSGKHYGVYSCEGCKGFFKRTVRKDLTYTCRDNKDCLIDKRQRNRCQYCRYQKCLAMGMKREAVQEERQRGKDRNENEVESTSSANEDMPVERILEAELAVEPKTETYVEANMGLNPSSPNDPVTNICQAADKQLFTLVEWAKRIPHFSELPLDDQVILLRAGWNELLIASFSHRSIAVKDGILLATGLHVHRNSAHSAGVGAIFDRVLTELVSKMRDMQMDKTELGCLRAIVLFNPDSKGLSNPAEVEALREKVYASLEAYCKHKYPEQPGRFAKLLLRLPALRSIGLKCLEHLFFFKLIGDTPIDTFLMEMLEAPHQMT

For `CC(C)(O)CCC(O)C(C)(O)C1CCC2(O)C3=CC(=O)C4CC(O)C(O)CC4(C)C3CCC12C` (centres unmarked) [20E, 20-hydroxyecdysone], the logD [1] is listed as 0.01, the EC50 [2] is listed as 7.6e-09 M and the estimated half-life [3] is listed as 9 h. The solubility (physchem) was 6700 µg/mL (≈ 13.9 mM), the Papp A→B at 120 min [4] was 0.11 ×10⁻⁶ cm/s and the Papp B→A at 120 min [4] was 0.39 ×10⁻⁶ cm/s. The efflux ratio at 120 min [4] was 3.5, the pEC50 [5] was under 4.48 and the “activity in wt-CfEcR assay” value ([5]; Example One) was “essentially inactive”. The “response toward CfEcR” value ([5]; Example Two) was “virtually no response” and the fraction unbound [6] was 0.908.
In the case of `CC(C)CC[C@@H](O)[C@](C)(O)[C@H]1CC[C@@]2(O)C3=CC(=O)[C@@H]4C[C@@H](O)[C@@H](O)C[C@]4(C)[C@H]3CC[C@]12C` [PoA, ponasterone A], the logD [1] was 1.95, the pEC50 [7] was 9.52 and the RMFI [7] was 1. For the same compound, the EC50 [2] was 2.6e-10 M, the pEC50 (VgEcR/RXR; EC50, VgEcR/RXR switch in 3T3 cells) was 6.19 and the pEC50 (VgEcR/RXR; EC50, VgEcR/RXR system) was 6.19. For the same compound, the RMFI (VgEcR/RXR; VgEcR/RXR system) was 1.5, the pEC50 ([8]; EC50, AaEcR gene switch, NIH3T3, Example One) was 8.96 and the “potency as activator of AaEcR” value ([8]; Example Two) was “single digit nM”. For the same compound, the fold induction at 1 µM ([8]; NIH3T3, read-out: FI (fold induction)) was 166, the “RLUs (absolute expression of the reporter gene)” value ([8]; [AaEcR]) was about 1046 and the pEC50 (Bombyx mori EcR (BmEcR)) was 6.96. The RMFI (Bombyx mori EcR (BmEcR); BmEcR, Example Two) was 0.98, the pEC50 [9] was about 7.18 and the Papp A→B at 120 min [4] was 2.26 ×10⁻⁶ cm/s. It also gave a Papp B→A at 120 min [4] of 13.9 ×10⁻⁶ cm/s, an efflux ratio at 120 min [4] of 6.2 and a pEC50 [5] of 6.72. The “RMFI (relative maximum fold induction, relative to diacylhydrazine 30)” value ([5]; wt-CfEcR gene switch, NIH3T3, Example One) was ~0.18 and ~0.2, the fraction unbound [6] was 0.426 and the “activity across the tested set of EcRs” value ([10]; FIGS. 13 and 14) was “active”. For the same compound, the “potency” value ([10]; all EcRs tested) was “submicromolar potency”, the pEC50 ([10]; read-out: potency (EC50), Nc, Aa, and Ama EcRs) was 8.70 to 9.52 and the solubility [11] was 180 µg/mL (≈ 0.387 mM).
